Measured values published in US20170216360A1, “METHODS AND COMPOSITIONS FOR IMPROVING HOMING OF CELLS INCLUDING MESENCHYMAL STEM CELLS” (SANOFI, priority 2014, published 2017).
Entries after “also recorded” stand apart in the source; their conditions may differ. Where a name gives a salt, the structure may show the parent alone.

Experiments:
MSC secretome = assay: Secretomic analysis of small molecule-primed MSCs (Bio-plex immunoassays); type: cell-based, human; conditions: for MSC secretome changes, result in words: 3 μM for 24 hours
Procedure: A single batch of human MSCs (#7F3915) was used for all of these experiments. Cells were seeded at 25,000 cells/well in a 12-well microplate. The following day, cells were treated with the selected compound (3 μM) or DMSO (as control). After 24 hours of treatment, secretomic samples were collected, centrifuged and frozen. Secretomes of MSCs were assayed for cytokines, chemokines and growth factors using Bio-plex human 21-plex and 27-plex immunoassay kits (Bio-Rad), according to the manufacturer's instructions. The 27-plex and 21-plex panels consisted of the following analytes: IL-1alpha, IL-1beta, IL-1Ralpha, IL-2, IL-3, IL-4, IL-5, IL-6, IL-7, IL-8, IL-9, IL-10, IL12p40, IL12p70, IL-13, IL-15, IL-17, IL-18, CTACK, GROalpha, HGF, IFN-alpha2, LIF, MCP-1, MCP-3, MIF, MIG, beta-NGF, SCF, SCGF-beta, SDF-1alpha, TNF-alpha, TNF-beta, TRAIL, Eotaxin, FGF-2, G-CSF, GM-CSF, IFN-gamma, IP-10, MIP-1alpha, PDGF-bb, RANTES and VEGF. A standard range of 0.2 to 3,200 pg/mL was used. Samples and controls were run in triplicate, standards and blanks in duplicate. Error bars represent standard deviation (3 independent experiments).
Analysis of the secretome of MSCs was conducted upon pretreatment of MSCs with compound 1929 for 24 h. In this experiment, the MSCs were from donor 318006 (BM318006 P7). The mean and standard deviation values of secretome analytes were measured in pg/ml.

[1] = test system: human mesenchymal stromal cells (MSCs); assay: Cell viability assay, IncuCyte FLR with Yoyo-1 dye (membrane integrity); type: cell-based; conditions: 24 hours pretreatment
Procedure: Cell viability experiments were performed using the IncuCyte FLR (Essen Bioscience). Cells were stained with a cell impermeant cyanine dimer nucleic acid stain (Yoyo-1, Life Technologies). This fluorescent dye was used to measure cell membrane integrity. Pre-confluent human mesenchymal stromal cells (MSCs) were incubated for 24 hours with both the indicated small molecules […]. To kinetically measure MSC membrane integrity, images were acquired every two hours using an IncuCyte FLR live-cell image imaging system.

[2] = test system: LPS-induced inflamed mouse ear; assay: In vivo MSC homing to LPS-induced inflamed ear after systemic infusion, intravital microscopy; design: key to In vivo functional assay (homing): NA = negative activity result; A = positive activity result; conditions: for Increase of MSC homing to inflamed ear (%): relative to untreated cells; for MSC homing to the inflamed ear in vivo, result in words: vs vehicle-treated control
Procedure: C57BL/6 mice (Charles River Laboratories, Wilmington, Mass.) were anesthetized with ketamine/xylazine and their ears shaved 24 h prior to cell infusion. To induce an inflammatory response, 30 μg of E. coli lipopolysaccharide (LPS, Sigma, St. Louis, Mo.) in 50 μL saline was injected into the pinna of the left ear, with 50 μL 0.9% saline injected into the right ear as a control. For in vivo dye sensitivity validation, 1×10e6 cells of each stain were suspended in 150 μL PBS (pH 7.4) and injected by retro-orbital vein infusion.
To evaluate the minimum number of cells needed for a reproducible response, each mouse (n=4) received a range of cell doses (10,000, 50,000, 100,000, or 500,000) each of cells stained with Dil or DiD with a dye switch (i.e., dyes used for experimental and control cells were alternated to prevent bias based on the dyes that were used). To evaluate the impact of small molecule hit pre-treatment on MSC homing to the inflamed ear, MSCs were incubated with 3 μM of the small molecule hit or 0.1% DMSO as a control for 24 h before staining and in vivo administration. To highlight the vasculature, 50 μL of 10 mg/mL FITC-dextran ([…]; Sigma, St. Louis, Mo.) was injected retro-orbitally prior to imaging.
In vitro staining and in vivo homing of stained MSCs to the skin was imaged noninvasively in real time using a custom-built video-rate laser-scanning confocal microscope designed specifically for live animal imaging. For in vivo imaging, the mouse ear was positioned under a coverslip with methylcellulose gel and images acquired at 30 frames per second at a depth up to 200 μm using a 60×1.0NA water immersion objective lens (Olympus, Center Valley, Pa.). DiO labeled MSCs were excited with a 491 nm continuous wave (CW) laser (Cobalt, Stockholm, Sweden), and detected through a 520±20 nm bandpass filter (Semrock, Inc., Rochester, N.Y.). Dil labeled MSCs were excited with a 561 nm CW laser (Coherent, Inc., Santa Clara, Calif.) and detected through a 593 nm±40 nm filter (Omega Optical, Brattleboro, Vt.). DiD labeled MSCs were excited with a 635 nm CW laser (Coherent, Inc., Santa Clara, Calif.) and detected through a 695 nm±27.5 nm band pass filter (Omega Optical, Brattleboro, Vt.). DiR labeled MSCs were excited using a femtosecond Ti:Sapphire Maitai source for single photon excitation at 750 nm (Spectra Physics, Santa Clara, Calif.) and collected through a 785 nm±31 nm band pass filter (Omega Optical, Brattleboro, Vt.).
For quantification, the average number of cells in 20 representative imaging locations across the inflamed region was counted in each mouse. Cells were defined as having a diameter from 10-30 μm to eliminate debris and clumps from analysis, and a primary channel intensity greater than 2 to eliminate autofluorescent events. The average relative detection sensitivity (ratio of Dil/DiD counts) determined in the overall dye efficiency experiments were used to scale the counts for DiD stained cells. […] For multiple comparisons, Tukey's HSD test was used. Error bars in graphs represent standard error, and statistical significance is denoted by * p<0.05.

[3] = MSCs pretreated 3 μM 24 h, 24 h after infusion

With CCc1c2c(nc3ccc(OC(=O)N4CCC(N5CCCCC5)CC4)cc13)-c1cc3c(c(=O)n1C2)COC(=O)[C@]3(O)CC [Compound 1927, reference compound] as the compound, how does the “MSC secretome changes, result in words” value (MSC secretome) read?
The value was “no secretome changes”.

And the MSC viability [1]?
The MSC viability was “did not modify MSC viability”.

What about the “MSC homing to skin in the inflamed ear, average cells” value [2, 3] of the same compound?
The value was 47.2±20.4 cells/cm^2.

And the “Increase of MSC homing to inflamed ear (%)” value [2]?
Its value is 0%.

What about the “MSC homing to the inflamed ear in vivo, result in words” value [2] of the same compound?
Its value is “no impact; also recorded: did not affect MSC homing”.

Cn1cc(C2=C(c3c4n(c5ccccc35)CCC(CN)C4)C(=O)NC2=O)c2ccccc21 (stereo not shown) [Compound 1929, 3-(8-aminomethyl-6,7,8,9-tetrahydro-pyrido[1,2-a]indol-10-yl)-4-(1-methyl-1H-indol-3-yl)-pyrrole-2,5-dione hydrochloride] was tested. Which “MSC secretome changes, result in words” value (MSC secretome) did it give?
Its value is “did not substantially alter”.

And the “Mean of [IFN-g]” value (MSC secretome; 3 μM, 24 h, MSC donor 318006)?
Its value is 14.9 pg/mL.

And the “Mean of [IL-6]” value (MSC secretome; 3 μM, 24 h, MSC donor 318006)?
Its value is 333.5 pg/mL.

And the “Mean of [IL-8]” value (MSC secretome; 3 μM, 24 h, MSC donor 318006)?
The value was 31.1 pg/mL.

What about the “Mean of [IL-12p70]” value (MSC secretome; 3 μM, 24 h, MSC donor 318006) of the same compound?
Its value is 13.9 pg/mL.

What about the “Mean of [MCP-1]” value (MSC secretome; 3 μM, 24 h, MSC donor 318006) of the same compound?
Its value is 22.5 pg/mL.

What about the “Mean of [VEGF]” value (MSC secretome; 3 μM, 24 h, MSC donor 318006) of the same compound?
The value was 486.8 pg/mL.

What about the “IL-6 level secreted by MSC” value (MSC secretome; 3 micromolar for 24 hours) of the same compound?
Its value is “downregulation”.

And the “Fold change of analyte VEGF upon pretreatment (vs. vehicle control)” value (MSC secretome; MSC secretome)?
The value was 0.75 +/− 0.26.

What about the MSC viability [1] of the same compound?
The MSC viability was “did not modify MSC viability”.

What about the “Increase of MSC homing to inflamed ear compared to vehicle-treated MSCs” value [2, 3] of the same compound?
Its value is 69.3±11.3%.

What about the “MSC homing to skin in the inflamed ear, average cells” value [2, 3] of the same compound?
Its value is 78.5±15.9 cells/cm^2.

What about the “Increased homing versus vehicle-treated MSCs, without CD11a blocking” value ([2]; inflamed ear) of the same compound?
Its value is 70%.

What about the “Increased homing versus vehicle-treated MSCs, CD11a blocked prior to infusion” value ([2]; inflamed ear, anti-human CD11a clone TS1/22) of the same compound?
Its value is “less than 10%”.

What about the “Increase of MSC homing to inflamed ear (%)” value ([2]; hydrochloride) of the same compound?
Its value is 73%.

What about the “In vivo functional assay (homing)” value ([2]; systemic administration of pretreated huMSCs) of the same compound?
Its value is “A”.

And the “MSC homing to the inflamed ear in vivo, result in words” value [2]?
The value was “significantly promoted MSC homing”.
